One data set can be described thus: Aqueous solubility. The data set is classed as physicochemical. To be noted: aqueous medium at pH 7.4, pH 7.4, aqueous buffer.
Data set [1] in a line: Distribution coefficient 1‐octanol / aqueous phosphate buffer. The format is physicochemical. To be noted: pH 7.4.

≈ marks a conversion by molar mass, not a printed value.

The solubility is the dissolved amount per volume that the medium holds. Read a low solubility as little dissolved substance. Usually logD stands for the decadic logarithm of the distribution of all forms, ionised or not, between an organic phase and buffer at a given pH. Read a high logD as a more lipophilic compound.

The molecule `O=C(NCc1cccc(CNC(=O)c2cc3ccccc3o2)c1)c1cc2ccccc2o1` [compound 28] had a solubility in “Aqueous solubility” of 3 µM (≈ 1.27 µg/mL).

For `c1cc(CNCc2cc3ccccc3o2)cc(CNCc2cc3ccccc3o2)c1` [compound 29], the pH-dependent lipophilicity (logD) in data set [1] was 4.6. Further, the solubility in the data set “Aqueous solubility” came out at 28 µM (≈ 11.1 µg/mL).
